By IC50 is commonly meant the midpoint of a concentration-inhibition curve. Read a high IC50 as weaker potency in that assay. For orientation: Ki means the dissociation constant of the complex between target and ligand, obtained from inhibition or displacement.

Some results are limits rather than exact numbers.

What all share (type): in vitro ADME
The target of test [1] is T1, UGT1A3 (Homo sapiens, UniProt P35503).
T1 construct: The reaction mixture containing 0.25 mg/mL protein of HLM; tissue Corning Life Sciences 452156; host or cells: pooled human liver microsomes, 50 donors
T1 sequence (P35503 29-534): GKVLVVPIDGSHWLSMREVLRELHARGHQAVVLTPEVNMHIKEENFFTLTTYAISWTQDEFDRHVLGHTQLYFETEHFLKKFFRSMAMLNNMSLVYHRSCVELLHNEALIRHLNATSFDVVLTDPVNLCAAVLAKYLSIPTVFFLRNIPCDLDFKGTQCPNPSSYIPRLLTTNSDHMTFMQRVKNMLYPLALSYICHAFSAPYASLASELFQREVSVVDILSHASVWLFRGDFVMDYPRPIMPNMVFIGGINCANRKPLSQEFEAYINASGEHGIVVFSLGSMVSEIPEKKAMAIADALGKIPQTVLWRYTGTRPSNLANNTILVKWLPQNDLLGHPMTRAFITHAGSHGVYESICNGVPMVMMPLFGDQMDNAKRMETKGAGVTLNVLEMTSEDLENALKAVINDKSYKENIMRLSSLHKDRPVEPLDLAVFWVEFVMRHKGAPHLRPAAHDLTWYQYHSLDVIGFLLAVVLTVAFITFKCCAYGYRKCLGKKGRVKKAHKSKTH
Description: Inhibition of UGT1A3 (chenodeoxy cholic acid glucuronidation) in human liver microsomes. To be noted: substrate 15 μM chenodeoxy cholic acid, mean (minimum–maximum). As for the experimental part: (§1) Their IC50 values were compared to that of sauchinone. […] UGT-mediated activities in the presence of sauchinone as an inhibitor were expressed as percentages of corresponding control values (in absence of sauchinone). From percentages of control activity versus inhibitor concentrations, a sigmoid shaped curve was fitted to the data and IC50 as an enzyme inhibition parameter was calculated by fitting the Hill equation to the data using GraphPad Prism 5 (GraphPad Software Inc., San Diego, CA, USA).
For orientation: Liver microsomes are vesicles of endoplasmic reticulum, rich in cytochrome P450 enzymes.

In test [2] the target is T2, UGT1A9 (Homo sapiens, UniProt O60656).
T2 construct: The reaction mixture containing 0.25 mg/mL protein of HLM; tissue Corning Life Sciences 452156; host or cells: pooled human liver microsomes, 50 donors
T2 sequence (O60656 26-530): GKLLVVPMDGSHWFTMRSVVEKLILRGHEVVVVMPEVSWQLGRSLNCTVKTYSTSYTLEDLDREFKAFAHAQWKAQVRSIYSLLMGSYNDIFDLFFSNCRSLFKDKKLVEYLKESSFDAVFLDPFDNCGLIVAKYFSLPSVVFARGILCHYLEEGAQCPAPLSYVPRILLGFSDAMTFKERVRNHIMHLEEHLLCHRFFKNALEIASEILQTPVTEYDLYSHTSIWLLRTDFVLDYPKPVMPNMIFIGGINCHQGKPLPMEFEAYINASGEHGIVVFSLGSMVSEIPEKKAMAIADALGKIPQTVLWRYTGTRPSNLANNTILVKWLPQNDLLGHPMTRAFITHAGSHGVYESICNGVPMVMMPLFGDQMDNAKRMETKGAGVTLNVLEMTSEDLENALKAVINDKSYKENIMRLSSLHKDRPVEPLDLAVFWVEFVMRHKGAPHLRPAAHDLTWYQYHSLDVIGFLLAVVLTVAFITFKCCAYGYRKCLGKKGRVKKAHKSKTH
In words: Inhibition of UGT1A9 (propofol glucuronidation) in human liver microsomes. The method, then:
as §1

Test [3] has as its target T3, UGT1A6 (Homo sapiens, UniProt P19224).
T3 construct: tissue Corning Life Sciences 452156; host or cells: pooled human liver microsomes
T3 sequence (P19224 27-532): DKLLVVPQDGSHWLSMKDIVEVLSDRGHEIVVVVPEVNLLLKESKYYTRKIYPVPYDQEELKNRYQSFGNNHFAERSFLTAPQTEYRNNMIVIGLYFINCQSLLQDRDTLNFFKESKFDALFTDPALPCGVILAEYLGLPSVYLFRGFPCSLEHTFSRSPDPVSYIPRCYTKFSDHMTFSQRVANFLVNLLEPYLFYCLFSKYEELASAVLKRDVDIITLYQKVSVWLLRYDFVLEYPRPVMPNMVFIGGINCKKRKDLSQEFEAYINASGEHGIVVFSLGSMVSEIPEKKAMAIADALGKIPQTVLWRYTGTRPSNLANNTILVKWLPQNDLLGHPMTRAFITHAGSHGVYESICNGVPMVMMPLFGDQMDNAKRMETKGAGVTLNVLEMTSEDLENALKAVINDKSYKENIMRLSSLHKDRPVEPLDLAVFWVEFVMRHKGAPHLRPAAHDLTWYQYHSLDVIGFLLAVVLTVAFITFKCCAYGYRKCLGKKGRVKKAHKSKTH
Description: Enzyme kinetic assay (Ki, Dixon plot) of UGT1A6-mediated serotonin glucuronidation. To be noted: for inhibition mode on UGT1A6: Dixon plot, visual inspection. The method, then:
Inhibitory effects of sauchinone on UGT1A1, 1A3, 1A4, 1A6, 1A9, and 2B7 activities were evaluated using HLMs. […] Spiked volume of UGT cocktail set was 1% (v/v) of total volume of mixture. […] The reaction was initiated by adding 5 mM UDPGA to a final volume of 150 μL and incubated at 37 °C for 15 or 60 min in a thermomixer at 500 rpm. Each reaction was stopped by adding 150 μL of ice-cold methanol containing 50 ng/mL IS. These mixtures were then centrifuged (12,000 rpm for 10 min at 4 °C) and 5 μL of the supernatant was injected into a UPLC-MS/MS system. […] Their IC50 values were compared to that of sauchinone. All inhibitors were dissolved in methanol (except for hecogenin, which was dissolved in dimethyl sulfoxide) and serially diluted to the required concentrations using the same solutions. The final concentration of organic solvent of inhibitors was 1% (v/v). All studies were performed in triplicate and mean values were used in the analysis. The half maximal inhibition constant (IC50) of sauchinone on UGT isoforms was estimated using GraphPad program.
Based on IC50 values, Ki values of sauchinone for UGT1A6 and 2B7 were determined. Concentrations of 0–200 μM of sauchinone were used. Other procedures were similar to those mentioned above in the study of reversible inhibitory effects of sauchinone. Inhibitory characteristics of sauchinone were initially estimated by nonlinear least squares regression analysis and Ki values were determined by Dixon plots.

For the molecule `C[C@@H]1[C@H]2c3cc4c(cc3O[C@@]35OCOC3=CC(=O)[C@H](C[C@H]1C)[C@@H]25)OCO4` [Sauchinone], the IC50 in test [1] is 43.9 µM; in test [2] (substrate 100 μM propofol, mean (minimum–maximum)) it was over 200 µM. For the same molecule, the “inhibitory effect on UGT1A9 activity” value in test [2] (sauchinone up to 200 μM) is reported as “negligible inhibitory effect”. Besides, the affinity in test [3] corresponds to a Ki of 1.08 µM. Also, the “inhibition mode on UGT1A6” value is “noncompetitively inhibited” in test [3] and “noncompetitive inhibition mode” in test [3] (listed as sauchinone). Further, in test [3] (sauchinone as inhibitor at 50 μM (decrease from 174 at 0 μM)), the “Vmax for UGT1A6-mediated serotonin glucuronidation with inhibitor” value is recorded as 6.36 μM/min/mg protein.

For the origin of these results see article PMC6017115, “Inhibitory Effect of Sauchinone on UDP-Glucuronosyltransferase (UGT) 2B7 Activity” (Molecules : A Journal of Synthetic Chemistry and Natural …, 2018).
